Legend:
[1] = Storage stability of fesoterodine base as oil and in polymer matrices; format: physicochemical; conditions: storage for 6 months at 5° C.
Method: While, for example, the free base of fesoterodine is decomposed as an oil after storage for 6 months at 5° C. to around 3-4%, a drop in concentration cannot be established or only established essentially to a lesser extent when fesoterodine is incorporated in matrices, which contain polar components. [table]

[2] = Stirring of fesoterodine base under distilled water, TLC of the aqueous phase; format: physicochemical; conditions: covered with distilled water, stirred two days at room temperature
Method: Fesoterodine (107.7 mg (R)-2-(3-Diisopropylamino-1-phenylpropyl)-4-hydroxymethylphenyl isobutyric acid ester, B) is covered with a layer distilled water and stirred at room temperature. After two days of stirring, the reaction batch remains unchanged two-phase.

CC(C)C(=O)Oc1ccc(CO)cc1[C@H](CCN(C(C)C)C(C)C)c1ccccc1 [free base of fesoterodine, (R)-2-[3-(1,1-diisopropylamino)-1-phenylpropyl]-4-(hydroxymethyl)phenyl isobutyrate]
Decomposition during storage as an oil [1]: 3-4%
Organic material detectable in the aqueous phase by thin layer chromatography [2]: No organic material (B or E) could be detected

— patent US7989654B2, “High purity bases of 3,3-diphenylpropylamino monoesters” (UCB Pharma GmbH, priority 2003, dated 2011)
